Measured values as given in patent US9618524B2, “Method, composition, isolation and identification of a plaque particle and related biomarker” (Plaxgen Inc., priority 2012, dated 2017).

Tests used:
Assay in all cases: Mass spectroscopy proteomics, semi-quantitative binding affinity of serum proteins (plaqueproteome, Table 2)
Conditions in all cases: higher number = stronger affinity
[1] = system: Tau plaque particles; set-up: species or system human
Outline: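 Serum or plasma proteins captured on Thioflavin S-labelled Tau plaque particles (Tau-74, Tau-275 oligomers preformed in PBS at 37° C for 2 h; 1 h co-incubation at 37° C) were isolated by FACS sorting, then tryptically digested and identified by MS/MS (Sequest, human UniProt, strict trypsin).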

[2] = system: High Density cholesterol (Chl Large) plaque particles; set-up: species or system human
Outline: (§1)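 Read-out is MS/MS protein identification (Sequest, strict trypsin, 20 ppm parent tolerance; Scaffold probabilities) of serum proteins bound to flow-sorted cholesterol plaque particles. These particles formed when 50% atherosclerotic serum was incubated with 30 μg cholesterol aggregates for 1 hr at 37° C.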

[3] = system: Low density cholesterol (Chl small) plaque particles; set-up: species or system human
Outline: as §1

[4] = target: T1, Abeta-42 plaque particles (Homo sapiens, UniProt P05067)
T1 construct: Abeta 1-42
Outline: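 AD patient serum or plasma (50% in PBS) was incubated with Abeta-42 aggregates (30 μg) for 1 h at 37 °C, then stained with Thioflavin S for 30 min. Labeled particles were FACS-sorted, trypsin/Lys-C digested overnight and analyzed by MS/MS. Sequest searched human UniProt; Scaffold/Protein Prophet validated the identifications.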

[5] = target: T2, alpha-synuclein plaque particles (Homo sapiens, UniProt P37840)
T2 construct: 140 amino acids polypeptide
Outline: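 AD-subject plasma or serum (800 μL of 50%) mixed with 30 μg preformed alpha-synuclein aggregates for 1 h at 37 °C; Thioflavin S-positive particles isolated by flow sorting. After reduction, acrylamide alkylation and overnight tryptic digestion, serum proteins identified by MS/MS with Sequest and Scaffold.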

| Substance | Semi-quantitative analysis of proteins binding to different plaque particles: Tau [1] | Semi-quantitative analysis of proteins binding to different plaque particles: Chl Large [2] | Semi-quantitative analysis of proteins binding to different plaque particles: Chl small [3] | Semi-quantitative analysis of proteins binding to different plaque particles: Abeta-42 [4] | Semi-quantitative analysis of proteins binding to different plaque particles: Synuclein [5] |
| --- | --- | --- | --- | --- | --- |
| Cluster of Ig gamma-1 chain C region | 37 | 57 | 63 | 23 | 56 |
| Complement C1q subcomponent subunit B | 2 | 1 | 0 | 0 | 2 |
| Complement factor B | 13 | 9 | 14 | 12 | 10 |
| Antithrombin-III | 6 | 8 | 6 | 5 | 9 |
| Ig kappa chain C region | 15 | 17 | 21 | 11 | 15 |
| Isoform Short of Heterogeneous nuclear ribonucleoprotein | 0 | 0 | 0 | 4 | 0 |
| Vitamin K-dependent protein S | 0 | 0 | 1 | 0 | 0 |
| Isoform 2 of Fibrinogen alpha chain | 1 | 0 | 1 | 0 | 0 |
| Ig heavy chain V-III region JON | 1 | 0 | 1 | 0 | 1 |
| Tubulin beta-4B chain | 5 | 0 | 0 | 0 | 0 |
| Vitronectin | 4 | 4 | 2 | 4 | 4 |
| Complement C4-B | 52 | 44 | 35 | 32 | 37 |
| Alpha-1B-glycoprotein | 6 | 7 | 7 | 4 | 11 |
| Cluster of Desmoplakin | 0 | 0 | 0 | 12 | 0 |
| Hemoglobin subunit delta | 0 | 0 | 0 | 0 | 2 |
| Isoform MBP-1 of Alpha-enolase | 0 | 0 | 0 | 7 | 0 |
| Serotransferrin | 48 | 66 | 73 | 46 | 78 |
| Ig heavy chain V-III region Gal | 4 | 0 | 1 | 2 | 2 |
| Ig lambda-2 chain C regions | 10 | 5 | 7 | 9 | 8 |
| Isoform 2 of Protein SET | 0 | 0 | 0 | 4 | 0 |
| Ig heavy chain V-III region TIL | 2 | 0 | 2 | 5 | 0 |
| Ig kappa chain V-I region AU | 0 | 1 | 1 | 2 | 0 |
